According to publication PMC6497546 (Molecular cancer therapeutics, 2019):

System: AR42J tumor
Experiment: Combination efficacy study with 5-fluorouracil
Type: in vivo, mice
Conditions: 5-fluorouracil alone, 15mg/kg once per week for nine weeks; post cell injection

`O=c1[nH]cc(F)c(=O)[nH]1` [5-fluorouracil] showed a median survival of 2.4 weeks.
